US9475839B2, “Peptide-based inhibitor of interleukin-10 or interferon-gamma signaling” (THE UNITED STATES OF AMERICA, AS REPRESENTED BY THE …, priority 2010, dated 2016)
Where two headings read alike, the source gives them in different places. Positions of bridges follow the written chain, without caps; N, C: chain ends. Non-standard residues stand in square brackets, D forms with d. Residues, ends and D or L forms follow the SMILES beside them. Chains are numbered I, II in the order given. ξ: configuration not given here. *: point of attachment. C(fluorescein) = cysteine carrying a fluorescein label; Palmitoyl = CCCCCCCCCCCCCCCC(=O)*; PEG4 = NCCOCCOCCOCCOCCC(=O)O; Nle = CCCC[C@H](N)C(=O)O; Aib = CC(C)(N)C(=O)O; ξK = NCCCCC(N)C(=O)O

What was measured:
[1] = biological target: T1, recombinant human IFN-gamma (Homo sapiens, UniProt P01579); assay: Microscale thermophoresis binding to IFN-gamma; settings: result in words
T1 sequence (P01579 24-161 limits assumed): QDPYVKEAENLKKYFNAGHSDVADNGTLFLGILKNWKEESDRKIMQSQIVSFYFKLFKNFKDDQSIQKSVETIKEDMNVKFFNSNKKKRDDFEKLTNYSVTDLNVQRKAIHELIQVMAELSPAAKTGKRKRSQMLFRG
Excerpt: To evaluate whether synthetic helix F analogs could interact with the corresponding cytokine, fluorescent derivatives of helix F were synthesized. The helix F analogs are described below.

mouse mast MC/9 cells = assay: Inhibition of IL10-dependent growth of MC/9 cells, MTT assay, 48 hours; assay type: cell-based
Experimental: (§1) Cells were exposed to compounds for 48 hours and cell number was determined with the help of MTT assay.
(§2) Cells were exposed to IL10-HF-1 for 48 hours and cell number was determined with the help of MTT assay.
(§3) Peptides designed to mimic conserved regions of the receptor sequences were tested for the ability to inhibit IL10 and IFN-gamma signaling. Inhibition of IL10 signaling was tested in a mouse mast cell line MC/9. […] Abrogation of IFN-gamma signaling or STAT1 activation causes cell death in this cell line.

[2] = tested on: MDA-MB-231 breast cancer cells; assay: Inhibition of IFN-gamma-dependent growth of MDA-MB-231 cells, MTT assay, 48 hours; assay type: cell-based; settings: 48 h
Experimental: as §1, §2, §3

[3] = Table 4, compounds mimicking conserved regions of IL10R1, cell line not given, read-out: GI50

Row | Compound | GI50 (mouse mast MC/9 cells; [3]) | GI50 (mouse mast MC/9 cells; 48 h) | other results
1 | Ac-C(Fluo)VQRKAIHELIQVx^13AELSPAAKT-NH2 ({Ac-C(fluorescein)}-VQRKAIHELIQV[Nle]AELSPAAKT-NH2) [IFNG-HF-6] |  |  | Affinity for IFN-gamma [1]: unexpectedly high affinity
2 | CCCCCCCCCCCCCCCC(=O)NCCCC[C@@H](NC(=O)[C@@H](CC(C)C)NC(=O)[C@@H](Cc1c[nH]cn1)NC(=O)CNC(=O)[C@@H](CO)NC(=O)[C@H](NC(=O)[C@@H](CC(=O)O)NC(=O)[C@@H](CO)NC(=O)CNC(=O)[C@@H](Cc1ccccc1)NC(=O)CNC(=O)[C@@H](CO)NC(=O)[C@H](NC(=O)[C@@H](CCCCN)NC(=O)[C@H]1CCCN1C(=O)[C@@H](CO)NC(=O)[C@@H](CC(C)C)NC(=O)[C@@H](CCC(N)=O)NC(=O)[C@H](NC(=O)[C@@H](CCC(=O)O)NC(C)=O)[C@H](C)O)[C@H](C)O)[C@H](C)O)C(N)=O [IL10R1-15] (Ac-[dE][dT][dQ][dL][dS][dP][dK][dT][dS]G[dF]G[dS][dD][dT][dS]G[dH][dL][dK](Palmitoyl)-NH2; C-terminus assumed) | > 5 µM |  | 
3 | CCCCCCCCCCCCCCCC(=O)NCCCC[C@H](N)C(=O)N[C@@H](CCCCN)C(=O)N[C@@H](CC(C)C)C(=O)N1CCC[C@H]1C(=O)N[C@@H](CO)C(=O)N[C@H](C(=O)N[C@@H](CC(C)C)C(=O)N[C@@H](CC(C)C)C(=O)N[C@@H](Cc1ccccc1)C(=O)N[C@@H](CCCCN)C(=O)N[C@@H](CCCCN)C(=O)N1CCC[C@H]1C(=O)N[C@@H](CO)C(N)=O)C(C)C [IL10R1-3, ε-Pal-KKLPSVLLFKKPS-NH2] (H-K(Palmitoyl)KLPSVLLFKKPS-NH2; N-terminus assumed) |  | 0.05 µM | GI50 [2]: 2.5 µM
4 | CCCCCCCCCCCCCCCC(=O)N[C@@H](CC(C)C)C(=O)N[C@@H](Cc1c[nH]cn1)C(=O)NCC(=O)N[C@@H](CO)C(=O)N[C@H](C(=O)N[C@@H](CC(=O)O)C(=O)N[C@@H](CO)C(=O)NCC(=O)N[C@@H](Cc1ccccc1)C(=O)NCC(=O)N[C@@H](CO)C(=O)N[C@H](C(=O)N[C@@H](CCCCN)C(=O)N1CCC[C@H]1C(=O)N[C@@H](CO)C(=O)N[C@@H](CC(C)C)C(=O)N[C@@H](CCC(N)=O)C(=O)N[C@H](C(=O)O)[C@@H](C)O)[C@@H](C)O)[C@@H](C)O [IL10R1-5, Pal-LHGSTDSGFGSTKPSLQT] (Palmitoyl-LHGSTDSGFGSTKPSLQT-OH; N-terminus and C-terminus assumed) |  | 1 µM | 
5 | CCCC[C@H](NC(=O)[C@H](Cc1ccc(O)cc1)NC(=O)[C@H](C)NC(=O)[C@H](CCC(=O)O)NC(=O)[C@@H](NC(=O)[C@H](Cc1ccc(O)cc1)NC(=O)[C@H](CC(N)=O)NC(=O)[C@@H](NC(=O)[C@H](Cc1ccccc1)NC(=O)[C@@H](NC(=O)[C@H](CC(=O)O)NC(=O)[C@H](Cc1ccccc1)NC(=O)[C@H](CCC(=O)O)NC(=O)[C@H](CO)NC(=O)C(C)(C)NC(C)=O)[C@@H](C)CC)[C@@H](C)CC)[C@@H](C)CC)C(=O)NCCOCCOCCOCCOCCC(=O)NCCCCC(NC(=O)CCOCCOCCOCCOCCNC(=O)[C@H](CCCC)NC(=O)[C@H](Cc1ccc(O)cc1)NC(=O)[C@H](C)NC(=O)[C@H](CCC(=O)O)NC(=O)[C@@H](NC(=O)[C@H](Cc1ccc(O)cc1)NC(=O)[C@H](CC(N)=O)NC(=O)[C@@H](NC(=O)[C@H](Cc1ccccc1)NC(=O)[C@@H](NC(=O)[C@H](CC(=O)O)NC(=O)[C@H](Cc1ccccc1)NC(=O)[C@H](CCC(=O)O)NC(=O)[C@H](CO)NC(=O)C(C)(C)NC(C)=O)[C@@H](C)CC)[C@@H](C)CC)[C@@H](C)CC)C(N)=O (stereo partly drawn) [IL10-HF-1] (I: Ac-[Aib]SEFDIFINYIEAY[Nle][PEG4][ξK]-NH2 / II: Ac-[Aib]SEFDIFINYIEAY[Nle][PEG4]; amide I:17-II:C) |  |  | GI50 (mouse mast MC/9 cells; FIG. 2, 48 hours exposure, MTT assay, read-out: GI50, IL10 dependent growth of MC/9): 0.05 µM
6 | CCCCCCCCCCCCCCCC(=O)NCCCC[C@H](N)C(=O)N[C@@H](CC(C)C)C(=O)N[C@H](C(=O)N[C@H](C(=O)N[C@@H](CC(C)C)C(=O)N1CCC[C@H]1C(=O)N[C@@H](CC(C)C)C(=O)N[C@H](C(=O)N[C@@H](CO)C(=O)N[C@@H](CO)C(=O)N[C@@H](CC(C)C)C(=O)N[C@@H](CCC(N)=O)C(=O)N[C@@H](CO)C(=O)N[C@@H](CO)C(=O)N[C@@H](CCC(=O)O)C(N)=O)[C@@H](C)CC)[C@@H](C)O)C(C)C [IL10R1-7, ε-Pal-KLVTLPLISSLQSSE-NH2] (H-K(Palmitoyl)LVTLPLISSLQSSE-NH2; N-terminus assumed) |  | 5 µM | 
7 | CCCCCCCCCCCCCCCC(=O)NCCCC[C@H](N)C(=O)N[C@@H](CC(C)C)C(=O)N[C@H](C(=O)N[C@H](C(=O)N[C@@H](CC(C)C)C(=O)N1CCC[C@H]1C(=O)N[C@@H](CC(C)C)C(=O)N[C@H](C(=O)N[C@@H](CO)C(=O)N[C@@H](CO)C(=O)N[C@@H](CC(C)C)C(=O)N[C@@H](CCC(N)=O)C(N)=O)[C@@H](C)CC)[C@@H](C)O)C(C)C [IL10R1-27, ε-Pal-KLVTLPLISSLQ-NH2] (H-K(Palmitoyl)LVTLPLISSLQ-NH2; N-terminus assumed) |  | > 5 µM | 
8 | CCCCCCCCCCCCCCCC(=O)N[C@@H](CC(C)C)C(=O)N[C@@H](Cc1ccc(O)cc1)C(=O)N[C@H](C(=O)N[C@@H](CCCNC(=N)N)C(=O)N[C@@H](CCCNC(=N)N)C(=O)N[C@@H](CCCNC(=N)N)C(=O)N[C@@H](CCCCN)C(=O)N[C@@H](CCCCN)C(=O)N[C@@H](CC(C)C)C(=O)N1CCC[C@H]1C(=O)N[C@@H](CO)C(=O)N[C@H](C(=O)N[C@@H](CC(C)C)C(=O)N[C@@H](CC(C)C)C(=O)N[C@@H](Cc1ccccc1)C(=O)N[C@@H](CCCCN)C(=O)N[C@@H](CCCCN)C(N)=O)C(C)C)C(C)C [IL10R1-1, Pal-LYVRRRKKLPSVLLFKK-NH2] (Palmitoyl-LYVRRRKKLPSVLLFKK-NH2) |  | 1 µM | GI50 [2]: 0.025 µM
9 | CCCCCCCCCCCCCCCC(=O)NCCCC[C@@H](N)C(=O)N[C@@H](C(=O)N[C@H](CCC(N)=O)C(=O)N[C@H](CC(C)C)C(=O)N[C@H](CO)C(=O)N1CCC[C@@H]1C(=O)N[C@H](CCCCN)C(=O)N[C@@H](C(=O)N[C@H](CO)C(=O)NCC(=O)N[C@H](Cc1ccccc1)C(=O)NCC(=O)N[C@H](CO)C(=O)N[C@H](CC(=O)O)C(=O)N[C@@H](C(=O)N[C@H](CO)C(=O)NCC(=O)N[C@H](Cc1c[nH]cn1)C(=O)N[C@H](CC(C)C)C(N)=O)[C@H](C)O)[C@H](C)O)[C@H](C)O [IL10R1-17, ε-Pal-KTQLSPKTSGFGSDTSGHL-NH2] (H-[dK](Palmitoyl)[dT][dQ][dL][dS][dP][dK][dT][dS]G[dF]G[dS][dD][dT][dS]G[dH][dL]-NH2; N-terminus assumed) | > 5 µM |  | 
10 | CCCCCCCCCCCCCCCC(=O)NCCCC[C@@H](NC(=O)[C@@H](CC(C)C)NC(=O)[C@@H](Cc1c[nH]cn1)NC(=O)CNC(=O)[C@@H](CO)NC(=O)[C@H](NC(=O)[C@@H](CC(=O)O)NC(=O)[C@@H](CO)NC(=O)CNC(=O)[C@@H](Cc1ccccc1)NC(=O)CNC(=O)[C@@H](CO)NC(=O)[C@H](NC(=O)[C@@H](CCCCN)NC(=O)[C@H]1CCCN1C(=O)[C@@H](CO)NC(=O)[C@@H](CC(C)C)NC(=O)[C@@H](CCC(N)=O)NC(=O)[C@H](NC(=O)[C@@H](CCC(=O)O)NC(=O)[C@@H](CCC(=O)O)NC(C)=O)[C@H](C)O)[C@H](C)O)[C@H](C)O)C(N)=O [IL10R1-14] (Ac-[dE][dE][dT][dQ][dL][dS][dP][dK][dT][dS]G[dF]G[dS][dD][dT][dS]G[dH][dL][dK](Palmitoyl)-NH2; C-terminus assumed) | 1 µM |  | 
